In publication PMC5642495, “Characterization of a novel androgen receptor (AR) coregulator RIPK1 and related chemicals that suppress AR-mediated prostate cancer growth via peptide and chemical screening” (Oncotarget, 2017):

What was measured:
[1] = tested on: AR; parameters: method as in PMID 24742982; settings: cited from earlier work
[2] = tested on: AR transactivation; assay: AR transcriptional reporter assay in PC-3 cells; type: cell-based, human; settings: 10 nM DHT, 1 µM
Protocol: Figure 1 Associations between RIPK1 and AR (A) Co-IP of Flag-RIPK1 with Flag-AR in the 293T cell line. Extracts of 293T cells overexpressing 3xFlag-RIPK1 and 3xFlag-AR were treated with […]. IP was performed using anti-AR (C19) or anti-RIPK1 antibody or normal rabbit serum (negative control), followed by immunoblotting (IB) with antibodies against AR or RIPK1. (B) RIPK1 interacts with full-length AR and the N- and C-terminal regions of AR in GST pull-down assays. Mutation of the FxxFY motif to AxxAA in RIPK1 reduced interactions with AR. […] (C) Transfection of PC-3 prostate cancer cells with AR and RIPK1. PC-3 cells in 24-well plates were co-transfected with 300 ng MMTV-LUC reporter plasmid and 0.5 ng SV40-Renilla luciferase plasmid, together with 100 ng pCMV-Flag-AR and 100, 300 or 500 ng p3xFLAG- RIPK1. The total plasmid DNA content was made up to 1 µg with pCMV. After 16 h, ethanol or 10 nM DHT was added and cells incubated for an additional 16 h. DHT was used as the AR ligand while ARA70N served as the positive control. Relative LUC activity was determined using the dual luciferase system. (D) RIPK1 functional domain mapping in relation to AR transactivation. PC-3 cells were transfected with pCMV-Flag-AR and RIPK1 expression plasmid, P3xFlag-RIPK1 full-length, P3xFlag-RIPK1-(240-671) or P3xflag-RIPK1-(1-558) plasmid, and cultured overnight. Ethanol or 10 nM DHT was added and cells incubated for an additional 16 h. Relative LUC activity was determined using the dual luciferase system. (E) RIPK1 is expressed in benign prostatic hyperplasia tissue, displaying strong positivity (3+, > 90%) in the gland area but weak (1+, 50%) staining in the background. (F) Human prostate cancer tissues were immunostained for RIPK1. “T” indicates the tumor area (right side) and “Non-T” the non-tumor area (left side). RIPK1 expression was weak (1+, 80%) in the cancer area but remained strong (3+, 70%) in the peri-cancer area. The figures are representative of three benign prostatic gland hyperplasia and cancer tissues.
The PC-3 prostate cancer cell line was used for experiments. […]

[3] = biological target: W741L-AR (bicalutamide-associated mutant androgen receptor, mammalian two-hybrid) (human); assay: two-hybrid; mammalian two-hybrid (MM2H) in PC-3 cells; Gal-4 peptide fusion with AR; CDX (bicalutamide) 10 µM; values relative to Gal-4 alone
Sequence of W741L-AR (bicalutamide-associated mutant androgen receptor, mammalian two-hybrid) (human) (P10275 whole entry, stated change not applied, the tested form may be a part): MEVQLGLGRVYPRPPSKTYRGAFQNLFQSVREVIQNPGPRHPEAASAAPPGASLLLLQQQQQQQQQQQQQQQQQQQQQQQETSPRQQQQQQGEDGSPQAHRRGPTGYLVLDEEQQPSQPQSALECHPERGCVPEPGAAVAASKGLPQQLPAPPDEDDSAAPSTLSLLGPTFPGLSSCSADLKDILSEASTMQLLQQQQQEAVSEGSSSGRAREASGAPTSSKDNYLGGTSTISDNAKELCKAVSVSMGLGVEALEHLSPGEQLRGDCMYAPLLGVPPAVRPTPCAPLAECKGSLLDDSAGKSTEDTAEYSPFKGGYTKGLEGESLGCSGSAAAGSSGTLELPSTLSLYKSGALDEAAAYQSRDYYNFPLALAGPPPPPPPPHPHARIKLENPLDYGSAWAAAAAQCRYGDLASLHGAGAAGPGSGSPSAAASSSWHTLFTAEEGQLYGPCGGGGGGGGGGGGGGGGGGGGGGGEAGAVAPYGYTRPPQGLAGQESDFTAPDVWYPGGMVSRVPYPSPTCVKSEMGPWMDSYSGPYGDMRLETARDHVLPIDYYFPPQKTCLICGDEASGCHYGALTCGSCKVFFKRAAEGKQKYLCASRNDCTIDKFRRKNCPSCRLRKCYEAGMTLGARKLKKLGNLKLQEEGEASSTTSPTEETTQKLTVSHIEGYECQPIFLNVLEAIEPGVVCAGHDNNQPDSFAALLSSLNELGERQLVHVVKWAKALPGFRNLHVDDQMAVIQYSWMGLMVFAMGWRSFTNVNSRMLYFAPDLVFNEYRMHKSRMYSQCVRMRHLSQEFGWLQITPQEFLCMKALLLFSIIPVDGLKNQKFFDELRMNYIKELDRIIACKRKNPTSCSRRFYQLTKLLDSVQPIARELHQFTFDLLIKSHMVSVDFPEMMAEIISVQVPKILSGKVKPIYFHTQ

Row | Molecule | relative reporter activity in the mammalian two-hybrid assay (Gal-4 alone = 1) [3] | also measured
1 | Nc1cc(N2CCCCC2)nc(N)[n+]1[O-] [Minoxidil] |  | suppression of AR related function [1]: suppress AR related function
2 | CNC(=O)c1ccc(N2C(=S)N(c3ccc(C#N)c(C(F)(F)F)c3)C(=O)C2(C)C)cc1F [enzalutamide, reference compound] |  | suppression of AR transactivation [2]: suppressed AR transactivation
3 | NTNAFSRLFYPS [#3-18 peptide (No. 12, positive control; GAL4-DBD-3-18)] | 128 | 
4 | GIEEKFRPFYLSQLE [RIP-p, short FxxFY-containing peptide of RIPK1 (No. 13)] | 554 | 
